Measurements from patent US6979470B2 (priority 2001, dated 2005).

What was measured:
COX-2 [1] = conditions: reported, specificity for COX-2 over COX-1; cited from earlier work
COX-2 [2] = biological target: T1, COX-2 (Mus musculus, UniProt Q05769); experiment: cell-based; type: cell-based
T1 construct: LPS, which was used to induce the expression of COX-2 in the RAW 264.7 cells; host or cells: RAW 264.7
T1 sequence (Q05769 18-604): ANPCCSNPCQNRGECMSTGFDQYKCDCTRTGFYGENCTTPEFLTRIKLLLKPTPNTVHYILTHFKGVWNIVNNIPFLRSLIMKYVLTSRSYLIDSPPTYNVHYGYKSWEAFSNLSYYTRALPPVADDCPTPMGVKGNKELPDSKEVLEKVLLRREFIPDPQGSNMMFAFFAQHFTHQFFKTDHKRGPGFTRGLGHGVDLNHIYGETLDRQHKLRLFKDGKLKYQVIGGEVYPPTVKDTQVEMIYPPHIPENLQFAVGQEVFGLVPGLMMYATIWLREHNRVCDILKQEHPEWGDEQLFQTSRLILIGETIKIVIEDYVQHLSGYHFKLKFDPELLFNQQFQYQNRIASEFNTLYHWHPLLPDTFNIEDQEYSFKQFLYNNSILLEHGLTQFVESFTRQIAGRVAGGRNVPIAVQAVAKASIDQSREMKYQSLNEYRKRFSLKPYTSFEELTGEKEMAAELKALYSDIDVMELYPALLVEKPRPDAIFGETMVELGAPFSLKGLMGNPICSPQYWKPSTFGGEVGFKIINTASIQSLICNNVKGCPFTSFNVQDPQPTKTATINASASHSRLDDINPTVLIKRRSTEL
Procedure: On day one of the experiment, the log phase 264.7 cells were plated at 8×10^4 cells per well in 0.2 mL growth medium per well in a 96-well tissue culture plate. After 6 to 8 hours post plating, 100 μL of growth medium from each well was removed and replaced with 100 μL fresh medium. […] It was mixed until dissolved and stored at 4° C. Immediately before use, it was thawed at room temperature or in a 37° C. water bath. A new solution was prepared every 60 days.
On day two of the experiment, the test materials were prepared as 1000× stock in DMSO. For example, if the final concentration of the test material was to be 10 μg/mL, a 10 mg/mL stock was prepared by dissolving 10 mg of the test material in 1 mL of DMSO. Fresh test materials were prepared on day 2 of the experiment. In 1.7 mL microfuge tubes, 1 mL DMEM without FBS was added to obtain test concentrations of 0.05, 0.10, 0.5, and 1.0 μg/mL. 2 μL of the 1000×DMSO stock of the test material was added to the 1 mL of medium without FBS. The tube contained the final concentration of the test material was concentrated 2-fold. The tube was placed in incubator for 10 minutes to equilibrate.
One-hundred mL of medium was removed from each well of the cell plates prepared on day one. One-hundred mL of equilibrated 2× final concentration the test compounds were added to cells and incubated for 90 minutes. […]

| Compound | COX-2 specificity (COX-2 [1]) | SPECIFICIY COX-1/COX-2 (COX-2 [2]; COX-1 IC50 (enzyme) / COX-2 IC50 (RAW 264.7)) | IC50 (COX-2 [2]; second compound alone, PGE2 production by COX-2, RAW 264.7 cells, 24 h LPS) [µM] |
| --- | --- | --- | --- |
| CC(=O)Oc1ccccc1C(=O)O [aspirin] | 0.6 |  |  |
| C=C1CC[C@@H]2[C@](C)(CO)[C@H](O)CC[C@@]2(C)[C@@H]1C/C=C1/C(=O)OC[C@H]1O [Andrographolide] |  | 5.2 | 762 |
